According to PubChem BioAssay AID1117285 (Broad Institute, 2014):
Inconclusive results are not listed. Values belong to the molecule of their own block, whether it stands above or below them. Activity calls are given as the source filed them.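 How the source made its calls: active means called active in every replicate test, with a falling signal and AC50 within twice the top valid dose; inconclusive means replicate tests disagree in their calls; inactive means inactive in every replicate test, including a rising signal.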

Molecular target: Leucyl-cystinyl aminopeptidase (Mus musculus) (UniProt Q8C129)
Experiment: inhibition of mouse IRAP Leu-AMC hydrolysis – biochemical, dry powder samples, set 2, selectivity assay for ERAP1 modulator project, dose response (AID 1117285)
Conditions: purified IRAP, Leu-AMC hydrolysis fluorescence, 1 h

Leucyl-cystinyl aminopeptidase (Mus musculus), sequence (Q8C129 whole entry, looked up): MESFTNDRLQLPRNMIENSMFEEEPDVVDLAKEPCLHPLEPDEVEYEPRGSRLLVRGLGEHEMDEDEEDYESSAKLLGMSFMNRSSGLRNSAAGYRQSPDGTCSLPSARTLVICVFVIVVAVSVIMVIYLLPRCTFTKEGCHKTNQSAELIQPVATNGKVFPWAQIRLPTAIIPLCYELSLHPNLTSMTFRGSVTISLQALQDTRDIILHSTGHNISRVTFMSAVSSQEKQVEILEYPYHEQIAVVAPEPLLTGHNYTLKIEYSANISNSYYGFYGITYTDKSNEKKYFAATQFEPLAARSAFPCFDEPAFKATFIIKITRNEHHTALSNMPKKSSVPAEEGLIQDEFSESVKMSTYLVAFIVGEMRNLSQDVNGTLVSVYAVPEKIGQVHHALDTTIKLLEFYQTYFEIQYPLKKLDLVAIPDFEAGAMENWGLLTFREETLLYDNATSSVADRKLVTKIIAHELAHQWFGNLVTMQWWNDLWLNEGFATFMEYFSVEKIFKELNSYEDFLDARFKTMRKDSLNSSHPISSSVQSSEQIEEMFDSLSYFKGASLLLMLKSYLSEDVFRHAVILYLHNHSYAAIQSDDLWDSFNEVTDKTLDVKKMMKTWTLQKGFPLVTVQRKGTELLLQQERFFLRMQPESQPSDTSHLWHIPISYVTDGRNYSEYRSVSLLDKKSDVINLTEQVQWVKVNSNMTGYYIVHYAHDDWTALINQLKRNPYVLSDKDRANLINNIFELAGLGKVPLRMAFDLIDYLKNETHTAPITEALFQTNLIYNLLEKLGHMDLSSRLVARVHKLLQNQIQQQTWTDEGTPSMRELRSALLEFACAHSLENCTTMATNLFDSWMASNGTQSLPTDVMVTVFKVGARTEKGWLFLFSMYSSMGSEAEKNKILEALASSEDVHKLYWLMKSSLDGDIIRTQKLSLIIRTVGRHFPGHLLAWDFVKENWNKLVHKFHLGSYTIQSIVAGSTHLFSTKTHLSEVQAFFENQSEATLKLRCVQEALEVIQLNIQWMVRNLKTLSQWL

max activity % (lower = more inhibition) (at 0.1 µM): inactive
SMILES: Cc1ccc(NC(=O)NC2(C(=O)N3CCOCC3)CCCCC2)cc1

max activity % (lower = more inhibition) (at 0.195 µM): inactive
SMILES: COc1ccc(S(=O)(=O)Nc2cc(C(F)(F)F)ccc2N2CCCCC2)cc1

max activity % (lower = more inhibition) (at 50 µM): inactive
SMILES: COc1ccc(C(=O)Nc2cc(C)ccc2N2CCCCC2)cc1S(=O)(=O)O

max activity % (lower = more inhibition) (at 50 µM): inactive
SMILES: COc1ccc(C(=O)Nc2cc(C(F)(F)F)ccc2N2CCCCC2)cc1S(=O)(=O)O

max activity % (lower = more inhibition) (at 0.8 µM): inactive
SMILES: O=S(=O)(Nc1cc(C(F)(F)F)ccc1N1CCCCC1)c1ccc(Cl)cc1

max activity % (lower = more inhibition) (at 0.195 µM): inactive
SMILES: COc1ccc(C(=O)Nc2cc(C(F)(F)F)ccc2N2CCCC2)cc1S(=O)(=O)O

max activity % (lower = more inhibition) (at 0.195 µM): inactive
SMILES: CC(=O)N1CCN(C(=O)C2(NC(=O)Nc3ccc(C(F)(F)F)cc3)CCCCC2)CC1

max activity % (lower = more inhibition) (at 0.8 µM): inactive
SMILES: Cn1cnc(S(=O)(=O)Nc2cc(C(F)(F)F)ccc2N2CCCCC2)c1

max activity % (lower = more inhibition) (at 0.195 µM): inactive
SMILES: Cc1ccccc1S(=O)(=O)Nc1cc(C(F)(F)F)ccc1N1CCCCC1

max activity % (lower = more inhibition): inactive
SMILES: COc1ccc(C(=O)O)cc1S(=O)(=O)Nc1cc(C(F)(F)F)ccc1N1CCCCC1

max activity % (lower = more inhibition) (at 0.1 µM): inactive
SMILES: COc1ccc(C(=O)Nc2cc(C(F)(F)F)ccc2N2CCOCC2)cc1S(=O)(=O)O

max activity % (lower = more inhibition) (at 0.38 µM): inactive
SMILES: CC(=O)N1CCN(C(=O)C2(NC(=O)Nc3cccc(C(F)(F)F)c3)CCCCC2)CC1

max activity % (lower = more inhibition) (at 0.1 µM): inactive
SMILES: CC(=O)N1CCN(C(=O)C2(NC(=O)Nc3ccc(C)cc3)CCCCC2)CC1

max activity % (lower = more inhibition) (at 0.1 µM): inactive
SMILES: CC(=O)N1CCN(C(=O)C2(NC(=O)Nc3ccc(C(F)(F)F)cc3)CCCC2)CC1

max activity % (lower = more inhibition) (at 50 µM): inactive
SMILES: CC(=O)N1CCN(C(=O)C2(NC(=O)Nc3ccc(F)cc3)CCCCC2)CC1

max activity % (lower = more inhibition) (at 0.195 µM): inactive
SMILES: O=S(=O)(Nc1cc(C(F)(F)F)ccc1N1CCCCC1)c1ccccc1

max activity % (lower = more inhibition) (at 0.38 µM): inactive
SMILES: CC(=O)N1CCN(C(=O)C2(NC(=O)Nc3ccc(C(C)C)cc3)CCCCC2)CC1

max activity % (lower = more inhibition) (at 50 µM): inactive
SMILES: CC(=O)N1CCN(C(=O)C2(NC(=O)Nc3ccccc3)CCCCC2)CC1

max activity % (lower = more inhibition) (at 0.1 µM): inactive
SMILES: CC(=O)N1CCN(C(=O)CNC(=O)Nc2ccc(C)cc2)CC1

max activity % (lower = more inhibition) (at 0.1 µM): inactive
SMILES: CC(=O)N1CCN(C(=O)C2(NC(=O)NC(C)(C)C)CCCCC2)CC1

max activity % (lower = more inhibition) (at 0.1 µM): inactive
SMILES: CC(=O)N1CCN(C(=O)C2(NC(=O)Nc3ccc(Cl)cc3)CCCCC2)CC1

max activity % (lower = more inhibition) (at 50 µM): inactive
SMILES: CC(=O)N1CCN(C(=O)C2(NC(=O)NCCc3ccccc3)CCCCC2)CC1

max activity % (lower = more inhibition) (at 50 µM): inactive
SMILES: CC(=O)N1CCN(C(=O)C(C)(C)NC(=O)Nc2ccc(C)cc2)CC1

max activity % (lower = more inhibition) (at 0.195 µM): inactive
SMILES: CC(=O)N1CCN(C(=O)C2(NC(=O)Nc3ccc(C(C)C)cc3)CCCC2)CC1

max activity % (lower = more inhibition) (at 0.38 µM): inactive
SMILES: O=S(=O)(Nc1cc(C(F)(F)F)ccc1N1CCCCC1)c1cc(Cl)cc(Cl)c1

AC50: > 100 µM (inactive)
SMILES: COC(=O)[C@H](CCCCN)NC(=O)c1ccc(N)c(NC(=O)[C@@H](N)CCc2ccccc2)c1

max activity % (lower = more inhibition) (at 50 µM): inactive
SMILES: COc1ccc(C(=O)Nc2ccccc2N2CCCCC2)cc1S(=O)(=O)O

max activity % (lower = more inhibition) (at 3 µM): inactive
SMILES: O=S(=O)(Nc1cc(C(F)(F)F)ccc1N1CCCCC1)c1ccc(C(F)(F)F)cc1

max activity % (lower = more inhibition) (at 0.195 µM): inactive
SMILES: CC(=O)N1CCN(C(=O)C2(NC(=O)Nc3ccccc3)CCCC2)CC1

max activity % (lower = more inhibition) (at 0.195 µM): inactive
SMILES: CC(=O)N1CCN(C(=O)C2CCCN2C(=O)Nc2ccc(C)cc2)CC1 (stereo not given)

max activity % (lower = more inhibition) (at 3 µM): inactive
SMILES: O=S(=O)(Nc1cc(C(F)(F)F)ccc1N1CCCCC1)c1ccc(Br)cc1

max activity % (lower = more inhibition) (at 0.195 µM): inactive
SMILES: O=S(=O)(Nc1cc(C(F)(F)F)ccc1N1CCCCC1)c1ccc(F)cc1

max activity % (lower = more inhibition) (at 0.8 µM): inactive | max activity % (lower = more inhibition) (at 50 µM): inactive
SMILES: CC(=O)N1CCN(C(=O)C2(NC(=O)Nc3ccccc3F)CCCCC2)CC1

max activity % (lower = more inhibition): inactive
SMILES: COc1ccc(C(=O)O)cc1S(=O)(=O)Nc1cc(C)ccc1N1CCCCC1

max activity % (lower = more inhibition) (at 0.8 µM): inactive
SMILES: O=[N+]([O-])c1ccc(S(=O)(=O)Nc2cc(C(F)(F)F)ccc2N2CCCCC2)c([N+](=O)[O-])c1

max activity % (lower = more inhibition) (at 50 µM): inactive
SMILES: O=C(Nc1cc(C(F)(F)F)ccc1N1CCCCC1)c1ccc(S(=O)(=O)O)cc1

AC50: > 100 µM (inactive)
SMILES: CC(=O)N1CCN(C(=O)[C@@H]2CCN2C(=O)Nc2ccc(C)cc2)CC1

max activity % (lower = more inhibition) (at 0.195 µM): inactive
SMILES: O=[N+]([O-])c1cccc(S(=O)(=O)Nc2cc(C(F)(F)F)ccc2N2CCCCC2)c1

max activity % (lower = more inhibition) (at 0.195 µM): inactive
SMILES: CC(=O)N1CCN(C(=O)C2(NC(=O)Nc3cccc(F)c3)CCCCC2)CC1

max activity % (lower = more inhibition) (at 50 µM): inactive
SMILES: COc1ccc(C(=O)Nc2cc(F)ccc2N2CCCCC2)cc1S(=O)(=O)O

max activity % (lower = more inhibition) (at 50 µM): inactive
SMILES: COc1ccc(C(=O)Nc2cccc(C(F)(F)F)c2)cc1S(=O)(=O)O

max activity % (lower = more inhibition) (at 12 µM): inactive
SMILES: COc1ccc(NC(=O)NC2(C(=O)N3CCN(C(C)=O)CC3)CCCCC2)cc1

max activity % (lower = more inhibition): inactive
SMILES: COc1ccc(C(=O)O)cc1S(=O)(=O)Nc1cc(C(F)(F)F)ccc1N(C)C

max activity % (lower = more inhibition): inactive
SMILES: COc1ccc(C(=O)O)cc1S(=O)(=O)Nc1cc(F)ccc1N1CCCCC1

max activity % (lower = more inhibition) (at 12 µM): inactive
SMILES: COc1cccc(NC(=O)NC2(C(=O)N3CCN(C(C)=O)CC3)CCCCC2)c1

max activity % (lower = more inhibition) (at 0.38 µM): inactive
SMILES: Cc1ccc(NC(=O)NC2(C(=O)N3CCN(c4ccccc4)CC3)CCCCC2)cc1

max activity % (lower = more inhibition): inactive
SMILES: COc1ccc(C(=O)O)cc1S(=O)(=O)Nc1cc(C(F)(F)F)ccc1N1CCOCC1

max activity % (lower = more inhibition): inactive
SMILES: COC(=O)c1ccc(OC)c(S(=O)(=O)Nc2cc(C(F)(F)F)ccc2N2CCCCC2)c1

max activity % (lower = more inhibition) (at 3 µM): inactive
SMILES: CC(=O)N1CCN(C(=O)C2(NC(=O)Nc3ccc(F)cc3)CCCC2)CC1

max activity % (lower = more inhibition) (at 0.195 µM): inactive
SMILES: CC(=O)N1CCN(C(=O)C2(NC(=O)Nc3ccccc3C(F)(F)F)CCCCC2)CC1

max activity % (lower = more inhibition): inactive
SMILES: COc1ccc(C(=O)O)cc1S(=O)(=O)Nc1ccccc1N1CCCCC1

max activity % (lower = more inhibition) (at 3 µM): inactive
SMILES: O=S(=O)(Nc1cc(C(F)(F)F)ccc1N1CCCCC1)c1ccc(-c2ccccc2)cc1

max activity % (lower = more inhibition) (at 0.195 µM): inactive
SMILES: NC(=NCCc1c[nH]c2ccccc12)NS(=O)(=O)c1cc(F)ccc1F

max activity % (lower = more inhibition) (at 0.8 µM): inactive
SMILES: N#Cc1ccc(S(=O)(=O)Nc2cc(C(F)(F)F)ccc2N2CCCCC2)cc1
